Test results from the supplement of paper PMC12533247.
± gives the standard deviation of the averaged measurements.

Legend:
[1] = tested on: HSV-1 K26-GFP infected primary human skin cells; assay: % change of HSV-1 GFP signal vs untreated infected cells; higher = less antiviral inhibition; settings: cell type: primary dermal fibroblasts, time (h post infection): 48
Description: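 2D primary donor-derived dermal fibroblasts infected with GFP-HSV-1 K26 at MOI 1, treated 1 h later with compound dilutions and read at 48 hpi on IncuCyte. GFP integrated intensity is normalised to mock-infected and untreated infected wells (% change; -100 = full inhibition).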

[2] = tested on: HSV-1 K26-GFP infected 3D skin equivalent; assay: % activity on HSV-1 GFP signal (0 = infected DMSO control, -100 = uninfected control); higher = higher signal (negative = inhibition / toxicity); settings: time (h post infection): 48
Description: (§1)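 Triplicate dose-response (0.04 to 10 uM) of 11 top compounds in 3D bioprinted skin equivalents (submerged and ALI models) infected with GFP-HSV-1 K26 at MOI 0.1 and fixed at 48 hpi. GFP (virus) and tdTomato (fibroblast viability) signals are normalised to per-plate controls.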

[3] = tested on: HSV-1 K26-GFP infected 3D skin equivalent; assay: % change of tdTomato fibroblast signal relative to infected DMSO control; higher = higher signal (negative = inhibition / toxicity); settings: time (h post infection): 48
Description: as §1

[4] = tested on: HSV-1 K26-GFP infected primary human skin cells; assay: % change of HSV-1 GFP signal vs untreated infected cells; higher = less antiviral inhibition
Description: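 2D primary donor-derived keratinocytes (read at 20 hpi) and donor-matched dermal fibroblasts (read at 48 hpi) infected with GFP-HSV-1 K26 at MOI 1 and treated 1 h later with compound dilutions. IncuCyte GFP integrated intensity is normalised by subtracting mock-infected wells and dividing by untreated infected wells, shown as % change (-100 = full inhibition).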

Cc1cccc(C)c1N(CC(=O)Nc1ccc(-c2ncon2)cc1)C(=O)C1CCS(=O)(=O)CC1 [Amenamevir]
Settings | % activity on HSV-1 GFP signal [%] | % change of HSV-1 GFP signal [%] | % change of tdTomato fibroblast signal [%]
[1], 0.001 µM, donor: 3 | – | -1.82 ± 12 | –
[1], 0.001 µM, donor: 4 | – | -1.13 ± 3.8 | –
[1], 0.003 µM, donor: 3 | – | -1.99 ± 14 | –
[1], 0.003 µM, donor: 4 | – | -8.69 ± 7.3 | –
[1], 0.0091 µM, donor: 3 | – | -11 ± 19 | –
[1], 0.0091 µM, donor: 4 | – | -24.4 ± 12 | –
[1], 0.0274 µM, donor: 3 | – | -15.9 ± 30 | –
[1], 0.0274 µM, donor: 4 | – | -37.9 ± 16 | –
[1], 0.0823 µM, donor: 3 | – | -29.7 ± 32 | –
[1], 0.0823 µM, donor: 4 | – | -61.9 ± 17 | –
[1], 0.2469 µM, donor: 3 | – | -63.1 ± 12 | –
[1], 0.2469 µM, donor: 4 | – | -76.9 ± 11 | –
[1], 0.7407 µM, donor: 3 | – | -89.6 ± 8.5 | –
[1], 0.7407 µM, donor: 4 | – | -84.4 ± 4.2 | –
[1], 2.2222 µM, donor: 3 | – | -98.8 ± 1.4 | –
[1], 2.2222 µM, donor: 4 | – | -94.5 ± 4.5 | –
[1], 6.6667 µM, donor: 3 | – | -99.52 ± 0.47 | –
[1], 6.6667 µM, donor: 4 | – | -99 ± 1.2 | –
[1], 20 µM, donor: 3 | – | -99.36 ± 0.81 | –
[1], 20 µM, donor: 4 | – | -99.59 ± 0.24 | –
[2], 0.041152 µM, model: ALI | -20.3 ± 12 | – | –
[2], 0.041152 µM, model: submerged | 2.22 ± 1.5 | – | –
[2], 0.123457 µM, model: ALI | -40.4 ± 26 | – | –
[2], 0.123457 µM, model: submerged | -17.6 ± 1.1 | – | –
[2], 0.37037 µM, model: ALI | -99.3 ± 4.2 | – | –
[2], 0.37037 µM, model: submerged | -61.9 ± 3.6 | – | –
[2], 1.111111 µM, model: ALI | -108 ± 8.2 | – | –
[2], 1.111111 µM, model: submerged | -84.6 ± 2.6 | – | –
[2], 3.33333 µM, model: ALI | -107 ± 2.8 | – | –
[2], 3.33333 µM, model: submerged | -89.2 ± 4.1 | – | –
[2], 10 µM, model: ALI | -112 ± 4 | – | –
[2], 10 µM, model: submerged | -85.3 ± 1.2 | – | –
[3], 0.041152 µM, model: ALI | – | – | 0.354 ± 5.1
[3], 0.041152 µM, model: submerged | – | – | 12 ± 9.8
[3], 0.123457 µM, model: ALI | – | – | -2.14 ± 7.9
[3], 0.123457 µM, model: submerged | – | – | -5.09 ± 11
[3], 0.37037 µM, model: ALI | – | – | -5.49 ± 9.1
[3], 0.37037 µM, model: submerged | – | – | -8.61 ± 15
[3], 1.111111 µM, model: ALI | – | – | -6.26 ± 2.4
[3], 1.111111 µM, model: submerged | – | – | -5 ± 12
[3], 3.33333 µM, model: ALI | – | – | -5.93 ± 5.3
[3], 3.33333 µM, model: submerged | – | – | 2.99 ± 13
[3], 10 µM, model: ALI | – | – | -8.92 ± 11
[3], 10 µM, model: submerged | – | – | 5.91 ± 9.7

% change of HSV-1 GFP signal [%], [4]
Settings | 0.001 µM | 0.003 µM | 0.0091 µM | 0.0274 µM | 0.0823 µM | 0.2469 µM | 0.7407 µM | 2.2222 µM | 6.6667 µM | 20 µM
cell type: primary dermal fibroblasts, donor: 5, time (h post infection): 48 | -4.89 ± 1.9 | -8.89 ± 6.9 | -13.3 ± 9.5 | -23.6 ± 18 | -42.3 ± 19 | -59.7 ± 17 | -74.9 ± 10 | -91.3 ± 2.1 | -98.98 ± 0.42 | -99.775 ± 0.029
cell type: primary keratinocytes, donor: 3, time (h post infection): 20 | 13.9 ± 7.1 | 12.5 ± 10 | 4.38 ± 14 | 0.743 ± 7.2 | -11.4 ± 19 | -38.9 ± 22 | -51.9 ± 7.8 | -68 ± 7.9 | -78.6 ± 13 | -83.4 ± 12
cell type: primary keratinocytes, donor: 4, time (h post infection): 20 | -3.16 ± 10 | -0.75 ± 3.6 | -11.8 ± 1.4 | -15.3 ± 5.3 | -42.6 ± 9 | -80.2 ± 16 | -87.1 ± 12 | -93.7 ± 7.1 | -95.2 ± 3.2 | -99.17 ± 0.71
cell type: primary keratinocytes, donor: 5, time (h post infection): 20 | 1.08 ± 1.5 | 2.94 ± 3 | -1.03 ± 1.6 | -12.8 ± 8.2 | -31.3 ± 16 | -49.2 ± 18 | -67.5 ± 19 | -93.4 ± 2.6 | -97.9 ± 2.3 | -99.54 ± 0.58
